#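 Five concentrations, 48 hours, 96-well plates. Abbreviation: GI50, concentration required for 50% inhibition of growth.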 Calls of active or inactive are those of the source. No stated cut-off is given here; in the data, active = GI50 up to about 1.1 µM and inactive = higher.
# Experiments:
# Experiment in all cases: NCI tumour cell line growth inhibition, 48 h
# MDA-N = tested on: MDA-N
# A498 = tested on: A498
# LOX IMVI = tested on: LOX IMVI
# SF-295 = tested on: SF-295
# UACC-62 = tested on: UACC-62
# CAKI-1 = tested on: CAKI-1
# COLO 205 = tested on: COLO 205
# SNB-19 = tested on: SNB-19
# RPMI-8226 = tested on: RPMI-8226
# ACHN = tested on: ACHN
# HCT-116 = tested on: HCT-116
# UO-31 = tested on: UO-31
# NCI/ADR-RES = tested on: NCI/ADR-RES
# SNB-75 = tested on: SNB-75
# SK-MEL-5 = tested on: SK-MEL-5
# HCT-15 = tested on: HCT-15
# RXF 393 = tested on: RXF 393
# HOP-62 = tested on: HOP-62
# NCI-H522 = tested on: NCI-H522
# Hs-578T = tested on: Hs-578T
SMILES,GI50 (MDA-N),GI50 (A498),GI50 (LOX IMVI),GI50 (SF-295),GI50 (UACC-62),GI50 (CAKI-1),GI50 (COLO 205),GI50 (SNB-19),GI50 (RPMI-8226),GI50 (ACHN),GI50 (HCT-116),GI50 (UO-31),GI50 (NCI/ADR-RES),GI50 (SNB-75),GI50 (SK-MEL-5),GI50 (HCT-15),GI50 (RXF 393),GI50 (HOP-62),GI50 (NCI-H522),GI50 (Hs-578T)
CC(=O)c1sc(Nc2ccc(Cl)c(Cl)c2)nc1C,> 100 µM (inactive),32.4 µM (inactive),> 100 µM (inactive),35.1 µM (inactive),> 100 µM (inactive),74.3 µM (inactive),> 100 µM (inactive),> 100 µM (inactive),64.4 µM (inactive),70.6 µM (inactive),> 100 µM (inactive),> 100 µM (inactive),> 100 µM (inactive),54.1 µM (inactive),> 100 µM (inactive),93.8 µM,55.3 µM (inactive),69.2 µM (inactive),–,–
CN1C(=O)C(/C=N/NC(=O)c2cccnc2)C(N)N(C)C1=O (stereo unspecified),> 100 µM (inactive),–,–,> 100 µM (inactive),> 100 µM (inactive),> 100 µM (inactive),> 100 µM (inactive),> 100 µM (inactive),> 100 µM (inactive),> 100 µM (inactive),> 100 µM (inactive),> 100 µM (inactive),> 100 µM (inactive),> 100 µM (inactive),> 100 µM (inactive),> 100 µM,> 100 µM (inactive),> 100 µM (inactive),> 100 µM (inactive),> 100 µM (inactive)
COC(=O)c1ccc(C)cc1CC1Cc2cccc(C)c2C1=O (stereo unspecified),1.87 µM (inactive),–,2.88 µM (inactive),6.49 µM (inactive),9.57 µM (inactive),10.6 µM (inactive),4.9 µM (inactive),4.4 µM (inactive),–,18.8 µM (inactive),3.68 µM (inactive),13.4 µM (inactive),5.16 µM (inactive),5.02 µM (inactive),3.59 µM (inactive),3.1 µM,7.87 µM (inactive),17.9 µM (inactive),2.37 µM (inactive),9.77 µM (inactive)
CN(C)/C=C/c1ccncc1,> 100 µM (inactive),> 100 µM (inactive),> 100 µM (inactive),> 100 µM (inactive),> 100 µM (inactive),> 100 µM (inactive),> 100 µM (inactive),> 100 µM (inactive),> 100 µM (inactive),> 100 µM (inactive),> 100 µM (inactive),> 100 µM (inactive),> 100 µM (inactive),–,> 100 µM (inactive),> 100 µM,> 100 µM (inactive),> 100 µM (inactive),> 100 µM (inactive),–
Cc1ccc(NC(=S)NNC(=O)c2cc(-c3ccccc3)nc3ccccc23)cc1,4.26 µM (inactive),–,–,5.92 µM (inactive),12.5 µM (inactive),18 µM (inactive),16 µM (inactive),16.7 µM (inactive),4.59 µM (inactive),16.3 µM (inactive),8.59 µM (inactive),12.7 µM (inactive),14 µM (inactive),12.2 µM (inactive),10.4 µM (inactive),7.13 µM,12.8 µM (inactive),13.2 µM (inactive),14.7 µM (inactive),17.4 µM (inactive)
CCCCCCCC(CC(=O)NC(CO)C(=O)NC(CO)CC(C)C)OC(=O)CC(CCCCCCC)OC(=O)CC(CCCCCCC)OC1OC(C)C(O)C(OC2OC(C)C(O)C(O)C2OC(C)=O)C1O (stereo unspecified),3.46 µM (inactive),15.8 µM (inactive),–,10 µM (inactive),5.9 µM (inactive),14.7 µM (inactive),2.04 µM (inactive),8.26 µM (inactive),–,15.5 µM (inactive),3.94 µM (inactive),16.9 µM (inactive),–,4.29 µM (inactive),10.1 µM (inactive),–,2.14 µM (inactive),12.9 µM (inactive),12.6 µM (inactive),4.51 µM (inactive)
